Experimental data: ChEMBL document CHEMBL1145560, “Use of receptor chimeras to identify small molecules with high affinity for the dynorphin A binding domain of the kappa opioid receptor” (Bioorg Med Chem Lett, 2008)

What was measured:
[1] = target: T1, Kappa-type opioid receptor (Homo sapiens, UniProt P41145); experiment: Displacement of [3H]diprenorphine from human kappa opioid receptor expressed in CHO-K1 cells; assay type: cell-based
[2] = Displacement of [3H]diprenorphine from human kappa/mu opioid chimera 3 receptor
[3] = Displacement of [3H]diprenorphine from human kappa/mu opioid chimera 4 receptor
[4] = target: Delta-type opioid receptor (Homo sapiens, UniProt P41143); experiment: Displacement of [3H]diprenorphine from human delta opioid receptor expressed in CHO-K1 cells; assay type: cell-based
[5] = target: T1, Kappa-type opioid receptor; experiment: Agonist activity at human kappa opioid receptor transfected in CHO cells by [35S]GTP-gamma-S binding assay; assay type: functional, cell-based
[6] = target: Mu-type opioid receptor (Homo sapiens, UniProt P35372); experiment: Displacement of [3H]diprenorphine from human mu opioid receptor expressed in CHO-K1 cells; assay type: cell-based
Chain of Mu-type opioid receptor (P35372 whole entry): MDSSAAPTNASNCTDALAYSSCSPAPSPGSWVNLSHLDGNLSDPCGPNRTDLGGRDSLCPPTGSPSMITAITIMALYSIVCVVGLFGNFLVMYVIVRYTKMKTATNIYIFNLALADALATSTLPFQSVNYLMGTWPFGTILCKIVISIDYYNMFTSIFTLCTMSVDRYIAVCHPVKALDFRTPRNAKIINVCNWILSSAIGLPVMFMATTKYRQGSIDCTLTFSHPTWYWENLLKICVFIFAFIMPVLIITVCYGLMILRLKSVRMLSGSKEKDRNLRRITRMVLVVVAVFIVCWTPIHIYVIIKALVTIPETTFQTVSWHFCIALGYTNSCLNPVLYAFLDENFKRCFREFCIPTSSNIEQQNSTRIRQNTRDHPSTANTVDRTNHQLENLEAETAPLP

Chain of Delta-type opioid receptor (P41143 whole entry): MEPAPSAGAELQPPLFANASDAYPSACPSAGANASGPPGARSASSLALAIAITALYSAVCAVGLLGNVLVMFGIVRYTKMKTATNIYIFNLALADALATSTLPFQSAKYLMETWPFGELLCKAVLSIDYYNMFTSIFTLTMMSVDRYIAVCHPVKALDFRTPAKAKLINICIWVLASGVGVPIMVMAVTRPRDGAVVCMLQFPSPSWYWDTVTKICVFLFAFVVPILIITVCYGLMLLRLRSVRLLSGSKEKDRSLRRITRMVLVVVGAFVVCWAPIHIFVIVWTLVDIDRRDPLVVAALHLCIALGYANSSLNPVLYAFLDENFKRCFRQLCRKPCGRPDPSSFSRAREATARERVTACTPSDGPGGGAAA
T1 sequence (P41145 whole entry): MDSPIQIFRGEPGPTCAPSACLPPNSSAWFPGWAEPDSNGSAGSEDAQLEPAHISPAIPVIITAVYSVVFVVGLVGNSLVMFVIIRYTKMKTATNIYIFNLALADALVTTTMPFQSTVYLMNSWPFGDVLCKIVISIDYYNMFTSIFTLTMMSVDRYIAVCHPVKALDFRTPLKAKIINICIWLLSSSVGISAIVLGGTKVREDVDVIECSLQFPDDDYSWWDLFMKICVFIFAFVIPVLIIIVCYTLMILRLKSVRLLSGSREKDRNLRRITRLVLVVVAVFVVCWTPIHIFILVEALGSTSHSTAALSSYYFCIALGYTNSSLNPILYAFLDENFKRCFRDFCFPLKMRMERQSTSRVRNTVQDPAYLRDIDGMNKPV

SMILES	Ki [1] [nM]	Ki [2] [nM]	Ki [3] [nM]	Ki [4] [nM]	EC50 [5] [nM]	Ki [6] [nM]
COc1cc(CC(=O)N(C)[C@H](CN2CC[C@H](O)C2)c2ccccc2)c(S(=O)(=O)N(C)C)cc1OC	1.6	6.4	2.8	9.3	0.24	25
COc1cc(CC(=O)N(C)[C@H](CN2CC[C@H](O)C2)c2ccccc2)c(S(=O)(=O)N2CCOCC2)cc1OC	1.4	–	–	1.8	0.34	9
CN(C(=O)Cc1cc2c(cc1S(=O)(=O)N(C)C)OCO2)[C@H](CN1CC[C@H](O)C1)c1ccccc1	0.54	4.5	0.5	6.2	0.11	34
COc1cc(CC(=O)N(C)[C@H](CN2CCCC2)c2ccccc2)c(S(=O)(=O)N(C)Cc2ccccc2)cc1OC	0.68	3.3	4.8	1.5	0.54	21
COc1cc(CC(=O)N(C)[C@H](CN2CCCC2)c2ccccc2)c(S(=O)(=O)N2CCN(C)CC2)cc1OC	–	4.8	6.8	23	0.39	52
COc1cc(CC(=O)N(C)[C@H](CN2CC[C@H](O)C2)c2ccccc2)c(S(=O)(=O)N2CCN(C)CC2)cc1OC	3.8	–	–	4.4	0.71	27
COc1cc(CC(=O)N(C)[C@H](CN2CCCC2)c2ccccc2)c(S(=O)(=O)N2CCOCC2)cc1OC	0.55	1.3	2.2	9.4	0.17	15
CN(C(=O)Cc1cc2c(cc1S(=O)(=O)N(C)C)OCO2)[C@H](CN1CCCC1)c1ccccc1	0.22	5.2	0.71	110	0.1	47
CC[C@H](C)[C@H](NC(=O)[C@H](CCCNC(=N)N)NC(=O)[C@H](CCCNC(=N)N)NC(=O)[C@H](CC(C)C)NC(=O)[C@H](Cc1ccccc1)NC(=O)CNC(=O)CNC(=O)[C@@H](N)Cc1ccc(O)cc1)C(=O)N[C@@H](CCCNC(=N)N)C(=O)N1CCC[C@H]1C(=O)N[C@@H](CCCCN)C(=O)N[C@@H](CC(C)C)C(=O)N[C@@H](CCCCN)C(=O)N[C@@H](Cc1c[nH]c2ccccc12)C(=O)N[C@@H](CC(=O)O)C(=O)N[C@@H](CC(N)=O)C(=O)N[C@@H](CCC(N)=O)C(=O)O [DYNORPHIN A (1-17)]	–	0.31	0.18	–	–	–
CN(C(=O)Cc1cc2c(cc1S(=O)(=O)N(C)Cc1ccccc1)OCO2)[C@H](CN1CCCC1)c1ccccc1	0.19	5.5	1.7	3.4	0.12	6.5
COc1cc(CC(=O)N(C)[C@H](CN2CCCC2)c2ccccc2)c(S(=O)(=O)N2CCCC2)cc1OC	0.31	1.5	1.2	5.4	0.11	14
COc1cc(CC(=O)N(C)[C@H](CN2CCCC2)c2ccccc2)c(S(=O)(=O)N(C)C)cc1OC	0.5	3.2	2.5	56	0.26	42
COc1cc(CC(=O)N(C)[C@H](CN2CC[C@H](O)C2)c2ccccc2)c(S(=O)(=O)N2CCCC2)cc1OC	1.1	38	8.3	0.85	0.12	5.9
